Series [1] can be described thus: Cmax after oral administration at a dose of 4 mg/kg in rat. The format is ADME, organism-based. Also noted: dose 4 mg/kg, route oral. To be noted: in vivo.
Series [2] can be described thus: Plasma clearance after IV dosing at 1 mg/kg in rat. The format is ADME, organism-based. Also noted: dose 1 mg/kg, route intravenous. To be noted: read-out: Clp.
The nature of series [3]: Elimination half-life after oral administration at a dose of 4 mg/kg in rat. Also noted: dose 4 mg/kg, route oral. The format is ADME, organism-based. As to conditions: in vivo.
A short description of series [4]: Bioavailability after oral administration at a dose of 4 mg/kg in rat. The class given is ADME, organism-based. To be noted: in vivo.
For a further series, the target named is T1, Adenosine receptor A1 (Cavia porcellus, UniProt P47745).
T1 sequence (P47745 whole entry): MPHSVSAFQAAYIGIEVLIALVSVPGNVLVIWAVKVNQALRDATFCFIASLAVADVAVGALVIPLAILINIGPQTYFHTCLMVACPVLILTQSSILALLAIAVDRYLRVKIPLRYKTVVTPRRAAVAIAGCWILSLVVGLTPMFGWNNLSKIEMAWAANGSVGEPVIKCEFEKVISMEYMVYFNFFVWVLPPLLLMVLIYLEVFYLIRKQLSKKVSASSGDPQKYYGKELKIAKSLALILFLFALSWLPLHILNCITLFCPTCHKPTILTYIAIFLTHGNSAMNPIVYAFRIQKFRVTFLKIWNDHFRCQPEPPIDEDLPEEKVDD
The series is described as follows: Agonistic activity against adenosine A1 receptor in guinea pig isolated hearts. The format is functional.

Series [5] addresses T2, Adenosine receptor A1 (Cavia porcellus) (UniProt P47745).
T2 sequence (whole entry): T1 sequence (P47745 whole entry)
Put plainly: Binding affinity against […] using [35S]GTP-gamma-S, radioligand in guinea pig. The format is functional. On the technique in general: GTPγS is a poorly hydrolysed GTP analogue; its binding reports G protein activation.

Series [6] in a line: Elimination half-life after IV dosing at 1 mg/kg in rat. The format is ADME, organism-based. More on the design: dose 1 mg/kg, route intravenous. To be noted: in vivo.
Series [7] concerns the target T2, Adenosine receptor A1 (Cavia porcellus).
Series [8] shares this target. This is another data set of the same source.
Series [9] has the same target. The source holds these as a separate data set.
Series [10] shares this target. This is another data set of the same source.
Series [11] can be described thus: Cmax after oral administration at a dose of 2 mg/kg in rat. The class given is ADME, organism-based. Also noted: dose 2 mg/kg, route oral. To be noted: in vivo.
Series [12] can be described thus: Plasma clearance after IV dosing at 0.5 mg/kg in rat. More on the design: dose 0.5 mg/kg, route intravenous. To be noted: read-out: Clp. The class given is ADME, organism-based.
Series [13] is described as follows: Elimination half-life after IV dosing at 0.5 mg/kg in rat. The format is ADME, organism-based. Also noted: dose 0.5 mg/kg, route intravenous. As to conditions: in vivo.
The nature of series [14]: Elimination half-life after oral administration at a dose of 2 mg/kg in rat. The format is ADME, organism-based. Also noted: dose 2 mg/kg, route oral. As to conditions: in vivo.
The nature of series [15]: Bioavailability after oral administration at a dose of 2 mg/kg in rat. The format is ADME, organism-based. As to conditions: in vivo.
In series [16] the target is T2, Adenosine receptor A1 (Cavia porcellus). The series is described as follows: Binding affinity against adenosine A1 receptor using [3H]CPX in guinea pig DDT membrane; 117+/-46.
Series [17] shares this target. The series is described as follows: Binding affinity against adenosine A1 receptor using [3H]CCPA in guinea pig DDT membrane; 12.7+/-1.5.
Series [18] has the same target. Put plainly: Binding affinity against adenosine A1 receptor using [3H]CPX in guinea pig DDT membrane; 604+/-241.

A word on the Cmax: it is the maximum level reached in the sampled fluid or tissue. Usually half-life stands for how long it takes for the measured level to halve. One may read the bioavailability as the share of a dose that reaches the circulation, judged against a reference dose that is usually intravenous. High values mean good availability, low ones poor availability. As a reminder, the EC50 is the concentration needed to bring the measured effect to its halfway point. Molecule `OC1[C@@H](O)C(n2cnc3c(NC4CCOC4)ncnc32)O[C@@H]1CSc1ccccc1F` (single isomer, unassigned) showed a Cmax in series [1] of 107 ng/mL. In addition, the clearance in series [2] was 69.4 mL/min/kg. In addition, the half-life in [3] was 78 min; in series [6] it was 24 min. The molecule also showed a bioavailability in series [4] of 12.3%. Also, the half-maximal effective concentration (EC50) at Adenosine receptor A1 turned out to be 1.26 µM. This molecule also returned an efficacy relative to CPA in series [5] of 72%. This molecule came in with a Ki low in [7] of 0.506 µM. The Ki high in series [8] was determined as 0.079 µM.

Regarding `Cc1cccc(Cl)c1SC[C@H]1OC(n2cnc3c(NC4CCOC4)ncnc32)[C@H](O)C1O` (single isomer, unassigned), the efficacy relative to CPA in [5] was 18%. This molecule displayed a Ki low in [9] of 7.29 µM. Also, the Ki high in series [10] came to 0.233 µM.

Regarding `OC1[C@@H](O)C(n2cnc3c(NC4CCOC4)ncnc32)O[C@@H]1COc1ccccc1F` (single isomer, unassigned), the Cmax in series [11] is 60.3 ng/mL. The clearance in series [12] worked out at 202 mL/min/kg. For the same molecule, the figures for the half-life in series [13] and in series [14] were 18 min and 96 min, respectively. In series [15], this molecule returned a bioavailability of 81%. Moreover, the EC50 on Adenosine receptor A1 was 0.2 µM. In [16], this molecule showed a Ki low of 0.117 µM. The molecule also came in with a Ki high in series [17] of 0.0127 µM. The molecule further returned an efficacy relative to CPA in series [5] of 78%.

Consider `OC1[C@@H](O)C(n2cnc3c(NC4CCOC4)ncnc32)O[C@@H]1COc1cccc(F)c1` (single isomer, unassigned), for which the Ki low in series [18] is 0.604 µM. This molecule gave an efficacy relative to CPA in [5] of 70%.

Values taken from ChEMBL document CHEMBL1137935 (Bioorg Med Chem Lett, 2004).
